# Reference: patent US10278971B2, “Fluorocyclopentenylcytosine methods of use” (Rexahn Pharmaceuticals, Inc., priority 2015, dated 2019)
# Key:
# A2780 cells = test: Protein expression by western blot; assay type: cell-based, human; details: A2780, 0.1 μM to 10 μM, 48 h
# Protocol: The influence of RX-3117 on protein expression during different treatment conditions was analyzed by western blot. Cells were lysed using 1× cell lysis buffer (Cell Signaling, Danvers, Mass., USA) containing 4% protease inhibitor cocktail (Roche Diagnostics, Mannheim, Germany) on ice for 30 minutes and centrifuged for 10 minutes at 4° C. at 14,000 rpm. Bio-Rad assay was performed to determine protein amount in the collected supernatant as described earlier (Lemos C, Kathmann I, Giovannetti E, Calhau C, Jansen G and Peters G J: Impact of cellular folate status and epidermal growth factor receptor expression on BCRP/ABCG2-mediated resistance to gefitinib and erlotinib. Br J Cancer 100: 1120-7, 2009). The following antibodies were used for protein expression: γH2A.X (cat#9718, Cell Signaling, 1:1000), β-actin (Sigma, 1:10,000), Cdc25C Ser216 (cat#4901, Cell Signaling, 1:1000), Cdk1 Tyr15 (cat#9111, Cell Signaling, 1:1000), […] (cat#2197S, Cell Signaling, 1:1000), Histone 3 (cat#4499, Cell Signaling). Antibodies were diluted in 1:1 solution with Rockland buffer (Rockland Inc, Philadelphia, Pa.) and phosphate buffered saline (PBS) supplemented with 0.05 Tween 20. Proteins were separated in 20% SDS-PAGE gel and transferred to polyvinylidene difluoride (PVDF) membrane. […] Proteins were detected by an Odyssey InfraRed Imager (Li-COR Bioscience, Lincoln, Nebr.).
# MC38 murine colon cancer = test: Syngeneic MC38 murine colon cancer model, tumor growth; assay type: in vivo
# Protocol: Following the protocol described below, the effect of RX-3117 on tumor growth in a syngeneic model using female C57BL/6 mice with MC38 murine colon cancer was examined. Tumor growth was measured in a treatment group compared to a control (vehicle treated) group (see Table 1 below for dosing scheme and treatment regimen).
# Briefly, the method is described as follows. The cells were harvested during exponential growth and re-suspended with phosphate buffered saline. Each test animal received a subcutaneous (s.c.) injection of 1×10^6 tumor cells into the right flank and tumor growth was monitored as the average tumor size approaches the target range of 60-100 mm^3. Dosing, based on Table 1 started as each animal reached this target range.
# Tumors were measured in two dimensions using calipers, and volume calculated using the formula:
# […] The MTV (n), the median tumor volume for the number of animals, n, on Day 45, was determined for each group. Percent tumor growth inhibition (% TGI) is defined as the difference between the MTV of the designated control group (vehicle administration) and the MTV of the drug-treated group, expressed as a percentage of the MTV of the control group:
# The data set for TGI analysis includes all animals in a group, except those that died due to treatment-related (TR) or non-treatment-related (NTR) causes. An agent that produces at least 60% TGI in this assay is considered to be potentially therapeutically active.
# Treatment efficacy was determined from the number of regression responses. Treatment may cause partial regression (PR) or complete regression (CR) of the tumor in an animal. In a PR response, the tumor volume is 50% or less of its D1 volume for three consecutive measurements during the course of the study, and equal to or greater than 13.5 mm^3 for one or more of these three measurements. In a CR response, the tumor volume is less than 13.5 mm^3 for three consecutive measurements during the course of the study. Any animal with a CR response on the last day of the study was additionally classified as a tumor-free-survivor.
# For toxicity assessments, animals were weighed daily for the first five days of the study and twice weekly thereafter. The mice were observed frequently for overt signs of any adverse, treatment-related side effects, and clinical signs of toxicity are recorded when observed.
# Acceptable toxicity is defined as a group mean body-weight loss of less than 20% during the study and not more than one treatment-related (TR) death among ten treated animals. Any dosing regimen resulting in greater toxicity is considered above the maximum tolerated dose (MTD). […]
# DNMT1 mRNA = test: DNMT1 RNA expression by real-time PCR; assay type: cell-based, human
# Protocol: DNMT1 protein expression was measured by Western Blotting after exposure to RX-3117 for 24 or 48 hr. DNMT1 RNA expression was measured by real-time PCR after 24 and 48 hr exposure to RX-3117. DNMT enzyme activity was measured in isolated nuclei after exposure 1 μM RX-3117 or 5 μM aza-CdR using a DNA methyltransferase assay kit provided by EpiGentek using the ability of a CpG dinding domain to bind to methylated DNA. In A549 cells the effect of 5 μM RX-3117 on overall methylation was measured with a specific antibody against 5-methyl-cytosine. Bands on Western blots were visualized using appropriate InfraRedDye using an Odyssey InfraRed imager.
# [1] = Day 45, N=10 per group, same regimens
smiles,measurement,setting,value
"Nc1ccn([C@@H]2C(F)=C(CO)[C@@H](O)[C@H]2O)c(=O)n1 [RX-3117, 4-amino-1-((1S,4R,5S)-2-fluoro-4,5-dihydroxy-3-hydroxymethyl-cyclopent-2-enyl)-1H-pyrimidin-2-one]",γH2A.X S139 induction,A2780 cells,induction of γH2A.X S139 in a dose dependent manner
same,CR: No. of Complete Regressions,MC38 murine colon cancer; [1],0
same,PR: No. of Partial Regressions,MC38 murine colon cancer; [1],0
same,TFS: No. of Tumor Free Survivors,MC38 murine colon cancer; [1],0
same,TGI Day 28 (tumor growth inhibition),"MC38 murine colon cancer; female C57BL/6 mice, MC38 s.c., RX-3117 60 mg/kg po (5/2) x 3, anti-PD-1 RMP1-14 100 μg/animal ip biwk x 2, 60 mg/kg",80%
same,DNMT1 mRNA,"DNMT1 mRNA; A549 and SW1573, 24 hours exposure",not affected
same,DNMT1 mRNA,"DNMT1 mRNA; A549 and SW1573, 48 hr",affected moderately
